Values after ≈ are worked out from the molar mass of the structure shown. “Also recorded” adds a separate entry of the source. Read-outs that look alike come from different tables or passages of the source.
How the values were obtained:
DLD1 = experiment: MTT cytotoxicity assay, DLD1; type: cell-based; details: Homo sapiens, DLD-1, DLD1, 72 h
Experimental: (§1) All cell lines were obtained from the American Type Culture Collection (ATCC) and cultured in the specified medium supplemented with 10% fetal bovine serum, 100 IU/mL penicillin, and 100 μg/mL streptomycin at 37°C in a humidified 5% CO2/95% air incubator. Synthesis of new compounds is described in S1 File, and >95% purity of RA475, Up284 and its analogs were confirmed by NMR and MS. To assess drug cytotoxicity, cells were seeded at 2,500 cells/well (10,000 cells/well for MM lines) in 100 μL medium in 96-well plate as triplicates and after 24 h treated with compounds for a further 72 h. To assess cytotoxicity, the cells were incubated for 2 h at 37°C according to the manufacturer’s protocol with the Thiazolyl Blue Tetrazolium Bromide (20 μL/well of 5 mg/mL stock solution in water) (Sigma, M5655) and A570 measured using a Benchmark Plus microplate spectrophotometer (BIO-RAD). IC50 was estimated using Graphpad Prism 7 software.

PEO23 = experiment: MTT cytotoxicity assay, PEO23; type: cell-based; details: PEO23, 72 h
Experimental: as §1

HepG2 = experiment: MTT cytotoxicity assay, HepG2; type: cell-based; details: Homo sapiens, HepG2, 72 h
Experimental: as §1

[1] = system: 4UbFL expressed in leg muscle; experiment: 4UbFL reporter in leg muscle of CD-1 mice; type: in vivo, mouse; details: for 4UbFL bioluminescence from leg muscle vs vehicle: single IP dose 40 mg/Kg, 4-96 h
Experimental: A patch of CD1 mouse leg was shaved of hair and 10 μg 4Ub-FL plasmid in 20 μL of PBS was injected into the quadriceps femoralis muscle followed immediately by injection of the 2 Needle Array to 5 mm depth encompassing the injection site and square wave EP (ElectroSquarePorator 833, BTX-2 Needle array 5mm gap, Harvard apparatus) delivered as eight pulses at 106 V for 20 ms with 200 ms intervals. One day post-EP, mice were anesthetized with isoflurane, injected IP with luciferin (0.3 mg in 100 μL water) and optical imaging was performed to determine basal level luciferase expression. Images were acquired for 10 min with a Xenogen IVIS 200 (Caliper, Hopkinton, MA). Equally sized areas were analyzed using Living Image 2.20 software.
Fig 3 Impact of RA475 on proteasome function. […] Actin was used as loading control. […] C) 4T1 and HCC1806 cells stably expressing 4UbFL were treated with compounds at indicated doses for 4 h and imaged by IVIS200 after the addition of luciferin substrate (50 μL, 7mg/mL in PBS). D) Sub-confluent cultures of ES2 cells stably expressing 4UbFL were seeded at 10,000 cells/well in 96-well microtiter plates. At 18 h post transfection, cells were treated with compounds or vehicle (DMSO) at the doses indicated. After a 4 h incubation, the cells were lysed and the luciferase activity in each cell lysate was determined with a luciferase assay kit (Promega) according to the manufacturer’s instructions. Bioluminescence was measured by using a luminometer (Glomax Multidetection system, Promega) E) A patch was shaved of hair on one leg of CD-1 mice, and 10 μg 4UbFL plasmid in 20 μL of PBS was injected into the quadriceps femoralis muscle followed immediately by injection of the 2 Needle Array to 5 mm depth encompassing the injection site and square wave electroporation (ElectroSquarePorator 833, BTX-2 Needle array 5mm gap, Harvard apparatus) delivered as eight pulses at 106V for 20 ms with 200 ms intervals. One day post electroporation, mice were anesthetized with isoflurane, injected IP with luciferin (0.3 mg in 100 μL water) and optical imaging was performed to determine basal level luciferase expression. Images were acquired for 10 min with a Xenogen IVIS 200 (Caliper, Hopkinton, MA). Equally sized areas were analyzed using Living Image 2.20 software. Mice were imaged weekly during treatment. Mice were randomized into three groups (n = 5) and treated IP once with Vehicle (25% (w/v) β-Hydroxypropylcyclodextrin in water, Sigma Aldrich) alone, RA475 (40 mg/Kg) or Up284 (40 mg/Kg) and mice were imaged again at 4 h, 24 h, 48 h, 72 h and 96 h later. F) Same as in E but RA475 (40mg/Kg) and ixazomib (10mg/Kg, recommended dose) were delivered orally. Thick line indicates median measurements. […]

[2] = Kinetic aqueous solubility in PBS pH 7.4; type: physicochemical; details: 25 °C, pH 7.4, aqueous buffer, kinetic from dmso stock
Experimental: Kinetic solubility assays were performed according to Enamine’s aqueous solubility SOP. Briefly, using a 20 mM stock solution of the compound in 100% DMSO dilutions were prepared to a theoretical concentration of 400 μM in duplicates in phosphate-buffered saline pH 7.4 (138 mM NaCl, 2.7 mM KCl, 10 mM K-phosphate) with 2% final DMSO. The experimental compound dilutions in PBS were further allowed to equilibrate at 25°C on a thermostatic shaker for two hours and then filtered through HTS filter plates using a vacuum manifold. The filtrates of test compounds were diluted 2-fold with acetonitrile with 2% DMSO before measuring. In parallel, using a 20 mM stock solution of the compound in 100% DMSO dilutions were prepared to theoretical concentrations of 0 μM (blank), 10 μM, 25 μM, 50 μM, 100 μM, and 200 μM in 50% acetonitrile/PBS with 2% final DMSO to generate calibration curves. Ondansetron was used as a reference compound to control proper assay performance. 200 μL of each sample was transferred to a 96-well plate and measured in the 230–550 nm range with a 5 nm step. The concentrations of compounds in PBS filtrate are calculated using a dedicated Microsoft Excel calculation script. Proper absorbance wavelengths for calculations are selected for each compound manually based on absorbance maximums (absolute absorbance unit values for the minimum and maximum concentration points within the 0–3 OD range). Each final dataset is visually evaluated by the operator, and goodness of fit (R^2) is calculated for each calibration curve.

Cl.Cl.N#Cc1ccc(/C=C2/C(=O)/C(=C/c3ccc(C#N)cc3)C23CCN(C(=N)N)CC3)cc1 [RA475, 1,3-bis((E)-4-cyanobenzylidene)-2-oxo-7-azaspiro[3.5]nonane-7-carboximidamide dihydrochloride]
IC50 (DLD1): 495 nM | IC50 (PEO23): 297 nM | IC50 (HepG2): 241 nM | 4UbFL stabilization, fold over baseline ([1]; 40 mg/Kg IP): > 20 fold | 4UbFL bioluminescence from leg muscle vs vehicle [1]: rapidly increased the bioluminescence | stabilization of 4UbFL in muscle ([1]; single oral (PO) 40 mg/Kg dose, 40 mg/kg): much lower than seen for the single IV dose; also recorded: minimal stabilization | solubility at 2 h ([2]; kinetic, 2% DMSO, 25°C, 2 h, read-out: PBS solubility, pH 7.4, Incubation 1): 136 µM | solubility at 2 h ([2]; kinetic, 2% DMSO, 25°C, 2 h, read-out: PBS solubility, pH 7.4, Incubation 2): 138 µM | solubility at 2 h ([2]; kinetic, 2% DMSO, 25°C, 2 h, read-out: PBS solubility, pH 7.4, Mean): 137 µM

N#Cc1ccc(/C=C2/C(=O)/C(=C/c3ccc(C#N)cc3)C23CCNCC3)cc1 [Up284, reference compound]
IC50 (DLD1): 110 nM | IC50 (PEO23): 112 nM | IC50 (HepG2): 90 nM | 4UbFL bioluminescence from leg muscle vs vehicle [1]: much weaker effect | solubility at 2 h [2]: 37 µM (≈ 13.5 µg/mL)

Source: paper PMC11239005, “Preclinical studies of RA475, a guanidine-substituted spirocyclic candidate RPN13/ADRM1 inhibitor for treatment of ovarian cancer” (PLOS ONE, 2024)
